Results as given in ChEMBL document CHEMBL1159041, “A study of the effects of substituents on the selectivity of the binding of N-arylaminomethylene malonate inhibitors to DHODH” (Bioorg Med Chem Lett, 2010).

What was measured:
[1] = target: T1, Dihydroorotate dehydrogenase (Plasmodium falciparum) (UniProt Q54A96); test: Inhibition of Plasmodium falciparum DHODH at 50 uM
T1 sequence (whole entry): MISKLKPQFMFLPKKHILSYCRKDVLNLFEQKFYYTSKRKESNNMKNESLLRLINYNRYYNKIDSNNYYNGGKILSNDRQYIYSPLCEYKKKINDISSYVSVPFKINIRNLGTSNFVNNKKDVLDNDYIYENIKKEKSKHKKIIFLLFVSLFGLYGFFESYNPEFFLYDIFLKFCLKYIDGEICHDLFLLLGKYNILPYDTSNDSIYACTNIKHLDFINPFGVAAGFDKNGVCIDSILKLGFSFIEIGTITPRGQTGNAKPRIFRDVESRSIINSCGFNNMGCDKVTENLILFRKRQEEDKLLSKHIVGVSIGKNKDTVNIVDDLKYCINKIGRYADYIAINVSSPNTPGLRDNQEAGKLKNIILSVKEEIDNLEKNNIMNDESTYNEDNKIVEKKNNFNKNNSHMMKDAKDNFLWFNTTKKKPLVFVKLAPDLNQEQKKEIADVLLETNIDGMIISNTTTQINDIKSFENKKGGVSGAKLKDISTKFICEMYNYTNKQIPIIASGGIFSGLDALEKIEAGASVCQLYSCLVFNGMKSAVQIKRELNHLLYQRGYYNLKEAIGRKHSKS

[2] = target: Dihydroorotate dehydrogenase (quinone), mitochondrial (Homo sapiens) (UniProt Q02127); test: Inhibition of human DHODH at 50 uM
Chain of Dihydroorotate dehydrogenase (quinone), mitochondrial (Homo sapiens) (Q02127 whole entry): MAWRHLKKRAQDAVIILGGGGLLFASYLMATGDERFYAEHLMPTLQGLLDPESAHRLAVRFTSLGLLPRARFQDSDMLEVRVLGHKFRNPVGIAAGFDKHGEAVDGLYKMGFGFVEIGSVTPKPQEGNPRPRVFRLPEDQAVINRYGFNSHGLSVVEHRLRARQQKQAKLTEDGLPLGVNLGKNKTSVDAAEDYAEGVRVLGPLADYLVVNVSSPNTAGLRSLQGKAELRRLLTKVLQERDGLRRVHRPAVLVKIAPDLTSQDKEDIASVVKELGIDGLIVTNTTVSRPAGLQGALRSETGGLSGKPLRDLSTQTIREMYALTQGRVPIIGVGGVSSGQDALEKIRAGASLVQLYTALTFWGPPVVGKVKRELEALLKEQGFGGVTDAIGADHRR

Structure (SMILES)	inhibition [1] [%]	inhibition [2] [%]
CCOC(=O)/C(C#N)=C\Nc1ccc(C(=O)O)c(Cl)c1	33	39
CCOC(=O)c1ccc(NC=C2C(=O)OC(C)(C)OC2=O)cc1	0	3
CCOC(=O)C(=CNc1ccc(C(=O)O)cc1)C(=O)OCC	43	37
CCOC(=O)C(=CNc1ccc(Cl)c(C(=O)OCC)c1)C(=O)OCC	39	16
CCOC(=O)c1cccc(NC=C2C(=O)OC(C)(C)OC2=O)c1	0	1
CCOC(=O)C(=CNc1ccc(C(=O)OCC)c(Cl)c1)C(=O)OCC	60	8
CCOC(=O)/C(C#N)=C\Nc1ccc(C(=O)OCC)c(Cl)c1	66	12
CCOC(=O)c1cc(NC=C2C(=O)OC(C)(C)OC2=O)ccc1Cl	0	5
CCOC(=O)C(=CNc1cccc(C(=O)O)c1)C(=O)OCC	54	33
CC1(C)OC(=O)C(=CNc2ccc(Cl)c(C(=O)O)c2)C(=O)O1	50	21
CCOC(=O)/C(C#N)=C\Nc1cccc(C(=O)OCC)c1	23	2
CCOC(=O)/C(C#N)=C\Nc1ccc(Cl)c(C(=O)OCC)c1	24	14
CCOC(=O)c1ccc(NC=C2C(=O)OC(C)(C)OC2=O)cc1Cl	12	0
CC1(C)OC(=O)C(=CNc2ccc(C(=O)O)cc2)C(=O)O1	28	32
CCOC(=O)/C(C#N)=C\Nc1ccc(C(=O)O)cc1	0	29
CCOC(=O)/C(C#N)=C\Nc1cccc(C(=O)O)c1	0	23
CCOC(=O)C(=CNc1ccc(C(=O)OCC)cc1)C(=O)OCC	15	4
CCOC(=O)/C(C#N)=C\Nc1ccc(C(=O)OCC)cc1	2	2
CC1(C)OC(=O)C(=CNc2cccc(C(=O)O)c2)C(=O)O1	25	27
CCOC(=O)C(=CNc1ccc(Cl)c(C(=O)O)c1)C(=O)OCC	37	39
CCOC(=O)/C(C#N)=C\Nc1ccc(Cl)c(C(=O)O)c1	44	45
CC1(C)OC(=O)C(=CNc2ccc(C(=O)O)c(Cl)c2)C(=O)O1	41	21
CCOC(=O)C(=CNc1cccc(C(=O)OCC)c1)C(=O)OCC	0	5
